The nature of assay [1]: Concentration required for 50% inhibition of influenza neuraminidase incubated in rat plasma at 37 degrees Celsius prior to assay. As to conditions: unidentified influenza virus. It is filed as cell-free.
A short description of assay [2]: Concentration required for 50% inhibition of influenza neuraminidase. The arrangement: species or system unidentified influenza virus.

One may read the IC50 as the concentration that gives 50% inhibition. Low readings indicate higher potency, high ones lower potency. On to `CCCS[C@@H]1C=C(C(=O)O)C[C@H](N)[C@H]1NC(C)=O`, for which the IC50 in assay [1] amounted to 212 nM.
Take `CCCO[C@@H]1C=C(C(=O)O)C[C@H](N)[C@H]1NC(C)=O`: in assay [2], the IC50 was 130 nM.
Still for that read-out and setting: in the case of `CCCC[C@@H]1C=C(C(=O)O)C[C@H](N)[C@H]1NC(C)=O` it was 220 nM.
